Experimental data as given in PMC5271370, “A High-Content Assay Enables the Automated Screening and Identification of Small Molecules with Specific ALDH1A1-Inhibitory Activity” (PLoS ONE, 2017).

The molecules below were run against T1, Human ALDH1A2 (Homo sapiens, UniProt O94788) (assay: 1,536-well enzymatic assay (NADH fluorescence), ALDH1A2). Details: not given.
T1 construct: purchased MyBioSource MBS1005929
T1 sequence (O94788 1-518): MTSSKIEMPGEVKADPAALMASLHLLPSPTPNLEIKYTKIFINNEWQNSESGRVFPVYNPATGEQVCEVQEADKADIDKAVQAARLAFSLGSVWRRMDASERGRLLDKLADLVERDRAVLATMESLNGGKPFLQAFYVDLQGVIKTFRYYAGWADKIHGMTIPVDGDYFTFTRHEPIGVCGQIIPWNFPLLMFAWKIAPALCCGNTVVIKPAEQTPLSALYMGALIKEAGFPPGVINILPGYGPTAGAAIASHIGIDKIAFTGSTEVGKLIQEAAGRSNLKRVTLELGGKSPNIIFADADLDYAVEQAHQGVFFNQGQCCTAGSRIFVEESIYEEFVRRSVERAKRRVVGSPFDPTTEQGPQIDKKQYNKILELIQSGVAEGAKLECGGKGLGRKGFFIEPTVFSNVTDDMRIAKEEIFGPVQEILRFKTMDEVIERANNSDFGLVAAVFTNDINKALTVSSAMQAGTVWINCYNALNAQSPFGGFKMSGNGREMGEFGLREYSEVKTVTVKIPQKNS
Assay type: biochemical
Excerpt: To validate our optimized assay, we assembled a set of 20 previously reported ALDH inhibitors, with varying degrees of target specificity (Table 1 and S4 Fig). […] Briefly, the assay measures the dehydrogenase activity of recombinant human ALDH1A1, ALDH1A2, ALDH1A3, ALDH2 or ALDH3A1 using NAD(P)^+ and either propionaldehyde or benzaldehyde as substrates. An orthogonal resorufin-based assay format was also run with isolated ALDH1A1 to rule out potential false positives due to intrinsic compound fluorescence.
Human ALDH1A1 and ALDH3A1 were expressed and purified as described elsewhere. Human ALDH2 was purchased from Abcam (ab87415). Human ALDH1A2 and ALDH1A3 were purchased from MyBioSource (MBS1005929; San Diego, CA) and ThermoFisher (11636H07E50), respectively. The inhibitory activity of compounds against ALDHs was measured according to protocols described previously. Briefly, 3 μL of enzyme (final concentrations of 20 nM for ALDH1A1, 50 nM for ALDH1A2, 50 nM for ALDH1A3, 75 nM for ALDH2 and 5 nM for ALDH3A1) in assay buffer (100 mM HEPES pH 7.5 with 0.01% Tween 20) were dispensed into a 1,536-well solid-bottom black plate (Greiner Bio One, Monroe, NC). […] Samples were incubated (room temperature, protected from light) for 15 minutes followed by a 1 μL substrate addition of NAD^+ and Propionaldehyde (final concentrations of 1 mM and 80 μM, respectively) for ALDH1A1, 1A2, 1A3, and ALDH2 or NADP^+ and benzaldehyde (final concentrations of 1 mM and 200 μM, respectively) for ALDH3A1. Plates were centrifuged at 1,000 rpm for 15 seconds, then read in kinetic mode on a ViewLux High-throughput CCD imager (PerkinElmer, Waltham, MA) equipped with standard UV fluorescence optics (340 nm excitation, 450 nm emission) for 5 (ALDH1A1, ALDH1A2, ALDH2, ALDH3A1) or 30 (ALDH1A3) minutes. The change in fluorescence intensity over the 5- or 30-minute reaction period was normalized against no-inhibitor and no-enzyme controls and the resulting percent inhibition data were fitted to a 4-parameter Hill equation. Bay-11 7085 was used as intraplate control. To account for artifacts due to intrinsic compound fluorescence in the above spectrum, compounds were also tested in an orthogonal resorufin assay format with optics of excitation 525 nm/emission 598 nm as described before. The same parameters as the NADH assay were used for the resorufin assay, with the addition of (final) 133 μg/mL diaphorase and 37 μM resazurin to the assay solution. Same controls were used in both formats.

Molecule | IC50 [nM]
O=c1c(-c2ccc(O)cc2)coc2cc(O[C@@H]3O[C@H](CO)[C@@H](O)[C@H](O)[C@H]3O)ccc12 [Daidzin] | 21500
Cc1cc2c(C(C)C)c(O)c(O)c(C=O)c2c(O)c1-c1c(C)cc2c(C(C)C)c(O)c(O)c(C=O)c2c1O [Gossypol] | 5390

Same assay, conditions: hits of dual cell-based screen (Table 2); read-out: Biochemical IC50 ALDH1A2

Molecule | IC50 [nM]
CC(C)N(C(=O)CCl)c1ccccc1 [Propachlor] | 320

Same assay, conditions: validation set; 50 nM enzyme, NAD+ and propionaldehyde; read-out: Biochemical IC50 ALDH1A2

Molecule | IC50 [nM]
COc1ccc(C(=O)CCN(C)C)cc1F [Aldi-2] | 120
CC(C)(C)c1ccc(S(=O)(=O)/C=C/C#N)cc1 [Bay-11-7085] | 380
Cc1nc2ccccc2n1S(=O)(=O)c1ccc(F)cc1 [CB7] | 15200
CCOc1ccc(NCC(=O)Nc2ccc(Cl)cc2C)cc1 [CID 725345] | 340
CCN(CC)c1ccc(C=O)cc1 [DEAB, 4-N,N-diethylaminobenzaldehyde] | 3400

Next, values leading:

IC50 [nM] | Molecule
3030 | COc1cccc2cc(C(=O)CC3(O)C(=O)N(Cc4ccccc4)c4ccccc43)c(=O)oc12 (centres unmarked) [CID 2929292]
140 | CCN(CC)C(=S)SSC(=S)N(CC)CC [Disulfiram]
24100 | Nc1ccccc1C(=O)CC(N)C(=O)O (centres unmarked) [Kynurenine]
24100 | C#CCN(C)Cc1ccccc1 [Pargyline]
680 | O=C1Nc2ccccc2C1=O [indoline-2,3-dione]
340 | CVT-10216
